Experimental data reported in paper PMC8074287, “Analgesic and Anticancer Activity of Benzoxazole Clubbed 2-Pyrrolidinones as Novel Inhibitors of Monoacylglycerol Lipase” (Molecules, 2021).
Like-named read-outs stand apart in the source and are kept apart here.

What was measured:
hMAGL = biological target: T1, hMAGL (Homo sapiens, UniProt Q99685); test: Human MAGL inhibition assay (Cayman's assay kit)
T1 sequence (Q99685 1-303): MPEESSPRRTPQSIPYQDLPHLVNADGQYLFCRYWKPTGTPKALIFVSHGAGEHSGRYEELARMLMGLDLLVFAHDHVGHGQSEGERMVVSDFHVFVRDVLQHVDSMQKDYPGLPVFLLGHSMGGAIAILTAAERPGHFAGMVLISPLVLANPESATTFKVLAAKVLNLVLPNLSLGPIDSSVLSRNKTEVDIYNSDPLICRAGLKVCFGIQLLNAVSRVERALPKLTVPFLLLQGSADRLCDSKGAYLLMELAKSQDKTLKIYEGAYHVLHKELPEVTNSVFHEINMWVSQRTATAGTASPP

hFAAH = biological target: T2, hFAAH (Homo sapiens, UniProt O00519); test: Human FAAH inhibition assay (Cayman's assay kit); conditions: IC50, mean ± SEM (n = 3)
T2 sequence (O00519 1-579): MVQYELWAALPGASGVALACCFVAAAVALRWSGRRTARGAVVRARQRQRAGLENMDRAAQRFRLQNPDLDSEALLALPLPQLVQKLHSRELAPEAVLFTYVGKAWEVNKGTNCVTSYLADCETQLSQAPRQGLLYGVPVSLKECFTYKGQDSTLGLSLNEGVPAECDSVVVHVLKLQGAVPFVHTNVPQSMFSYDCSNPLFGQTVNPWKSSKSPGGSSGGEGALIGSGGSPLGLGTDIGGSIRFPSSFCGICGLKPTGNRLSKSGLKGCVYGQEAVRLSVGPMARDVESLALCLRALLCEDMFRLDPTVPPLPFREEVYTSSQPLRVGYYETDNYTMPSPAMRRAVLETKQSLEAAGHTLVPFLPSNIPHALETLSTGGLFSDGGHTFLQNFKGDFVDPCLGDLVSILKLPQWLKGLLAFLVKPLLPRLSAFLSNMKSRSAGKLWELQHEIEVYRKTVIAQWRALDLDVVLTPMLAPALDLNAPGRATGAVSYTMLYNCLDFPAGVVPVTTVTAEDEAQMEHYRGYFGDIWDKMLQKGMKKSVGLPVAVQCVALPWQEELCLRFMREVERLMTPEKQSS

MAGL = conditions: cited from earlier work
FAAH = system: FAAH; design: method as in PMID 15456244; conditions: read-out: FAAH IC50, value reported; cited from earlier work
[1] = system: formalin-induced nociception; test: Formalin-induced analgesic (nociception) test; assay type: in vivo, Male Wistar rats; conditions: 100 mg/kg i.p., 30 min before formalin
Source text: The formalin-induced analgesic test is an extensively acknowledged animal nociception model. In order to evaluate both central and peripheral effects of the compound (20), formalin-induced nociception model was selected for analgesic activity. The formalin induced behavioral response comprises two typical phases, stage I and II. Stage I persists up to five minutes after formalin injection and is characterized by acute pain with vigorous licking and biting of the injected site. Stage I consists the action formalin on afferent C-fiber nociceptors. While Stage II starts 10–30 min after formalin injection and persists till 60 min, characterized by periodic licking and biting of the injected site. Stage II imitates the action of central sensitization of the spinal dorsal horn neurons.
Figure 5 Formalin-induced analgesic test; a dose of the test compound 20 (5, 10, 30, and 50 mg/kg, p.o, suspended in 0.5% CMC) was administered 4 h before formalin injection (50 µL, 2.5%). Reference drug, gabapentin (100 mg/kg, i.p, dissolved in 0.9% normal saline) was injected 30 min before formalin injection. Total paw licking and biting duration, Stage I (white bar, 0–5 min) and stage II (black bar, 10–30 min) was recorded as a measure of pain behavior. Data is represented as mean ± SEM from a group of 10 animals. * p < 0.05, ** p < 0.01, p > 0.05 (NS, nonsignificant) vs. control (vehicle). GBP: Gabapentin; D5, D10, D30, andD50 are the dose concentrations of test compound 20.
Male Wistar rats (180–200 g) were obtained with the permission of IAEC (proposal number 1048) from Jamia Hamdard, New Delhi, India. The results of test compound 20 and reference drug, Gabapentin (GBP), were statistically compared with the control group.

[2] = earlier work of the authors' group

Structure (SMILES) | IC50 (hMAGL) [nM] | melting point [°C] | IC50 (MAGL) [nM] | further results
O=C1CC(c2nc3ccccc3o2)CN1c1ccccc1 (centres unmarked) [Compound 12, 4-(Benzo[d]oxazol-2-yl)-1-phenylpyrrolidin-2-one] | > 100000 | 148 to 150 |  | 
COc1ccc(N2CC(c3nc4ccccc4o3)CC2=O)cc1 (centres unmarked) [Compound 18, 4-(Benzo[d]oxazol-2-yl)-1-(4-methoxyphenyl)pyrrolidin-2-one] | 42 ± 1.5 | 177 to 179 |  | IC50 (hFAAH): 37000 ± 2200 nM
O=C(O[C@H](CO)C(F)(F)F)N1C[C@@H]2C(c3ccn(-c4ccc(F)cc4)n3)[C@@H]2C1 (some centres unmarked) [PF-06795071] |  |  | 3 | 
O=C1CC(c2nc3ccccc3o2)CN1c1ccc(O)cc1 (centres unmarked) [Compound 17, 4-(Benzo[d]oxazol-2-yl)-1-(4-hydroxyphenyl)pyrrolidin-2-one] | 62000 ± 2700 | 242 to 245 |  | 
O=C1CC(c2nc3ccccc3o2)CN1c1ccc(Cl)cc1 (centres unmarked) [Compound 15, 4-(Benzo[d]oxazol-2-yl)-1-(4-chlorophenyl)pyrrolidin-2-one] | 65 ± 3.2 | 174 to 176 |  | IC50 (hFAAH): 28000 ± 1800 nM
O=C(Nc1cccc(-c2ccccc2)c1)OC1CCCCC1 [URB602] |  |  | 28000 | 
O=C(N1CCN(C(c2ccccc2)c2ccccc2)CC1)n1nnc2ccccc21 [ML30] |  |  | 0.54 | 
COc1nn(-c2ccc(NC(=O)OCc3ccccc3)c(C)c2)c(=O)o1 [CAY10499, reference compound] |  |  | 144 | IC50 (hMAGL; read-out: hMAGL, IC50, mean ± SEM (n = 3)): 415 ± 3.2 nM
Cc1ncccc1-c1cc(F)cc(N2C[C@H](N3CCN(c4ncccn4)CC3)CC2=O)c1 [R(3t)] |  |  | 3.6 | 
O=C(Cn1nnc2ccccc21)Nc1ccc(-c2nc3ccccc3s2)cc1 [ZINC24092691] |  |  |  | IC50 (MAGL; [2]): 10 nM
CCCCNC(=O)Oc1ccc(C2=NCCS2)cc1 [SPB01403] |  |  | 31000 | 
O=C1CC(c2nc3ccccc3o2)CN1c1ccc(F)c(Cl)c1 (centres unmarked) [Compound 16, 4-(Benzo[d]oxazol-2-yl)-1-(3-chloro-4-fluorophenyl)pyrrolidin-2-one] | 34 ± 1.7 | 187 to 189 |  | IC50 (hFAAH): 25000 ± 2300 nM
COc1ccc(N2CC(c3nc4ccccc4[nH]3)CC2=O)cc1 (centres unmarked) [compound 25] |  |  |  | IC50 (MAGL; [2]): 9.4 nM
O=C(Cn1nnc2ccccc21)Nc1ccc(-c2nc3ccccc3s2)cc1 [ZINC24092691 analogue] |  |  |  | IC50 (MAGL; [2]): 6.5 nM
O=C(N1CCC(C(c2ccc3c(c2)OCO3)c2ccc3c(c2)OCO3)CC1)n1cncn1 [JJKK-048, {4-[bis-(benzo[d][1,3]dioxol-5-yl)methyl]-piperidin-1-yl}(1H-1,2,4-triazol-1-yl)methanone] |  |  | 0.363 | selectivity for MAGL over FAAH (MAGL): more than 10,000 fold
NC(=O)c1cccc(-c2cccc(OC(=O)NC3CCCCC3)c2)c1 [URB597] |  |  |  | IC50 (FAAH): 4.6 nM
Cc1ccccc1N1CC(c2nc3ccccc3o2)CC1=O (centres unmarked) [Compound 13, 4-(Benzo[d]oxazol-2-yl)-1-(o-tolyl)pyrrolidin-2-one] | 85000 ± 1500 | 162 to 164 |  | 
Cc1ccc(N2CC(c3nc4ccccc4o3)CC2=O)cc1 (centres unmarked) [Compound 14, 4-(Benzo[d]oxazol-2-yl)-1-(p-tolyl)pyrrolidin-2-one] | 72000 ± 2100 | 164 to 166 |  | 
NCC1(CC(=O)O)CCCCC1 [GBP, Gabapentin, reference compound] |  |  |  | paw licking and biting, Stage II ([1]; vs control): significant reduction of paw licking and biting; analgesic effect, Stage I (acute nociception) ([1]; vs control (0.5% CMC)): little analgesic effects
O=C(N1CCN(C(c2ccc(F)cc2)c2ccc(F)cc2)CC1)n1cncn1 [SAR629] |  |  | 1.1 | 
O=C(OC(C(F)(F)F)C(F)(F)F)N1CCC(C(O)(c2ccc3c(c2)OCO3)c2ccc3c(c2)OCO3)CC1 [KML29] |  |  | 3.6 | selectivity for MAGL over FAAH (MAGL): more than 10,000 fold
O=C1CC(c2nc3ccccc3o2)CN1Cc1ccccc1 (centres unmarked) [Compound 11, 4-(Benzo[d]oxazol-2-yl)-1-benzylpyrrolidin-2-one] | > 100000 | 160 to 162 |  | 
